The series in a line: recombinant barcode read abundance after kanamycin selection (control-corrected) (log10(CPM+1)); higher = more efficient recombination; sequences stand for … in AGTGCAGAGAAAATCGGCCAGTTTTCTCTGCCTGCAGTCCGCATGCCGT…AGATTTATGCAGCGGACTGCCTTTCTCCCAAAGTGATAAACCGGACAGTATCATGGACCGGTTTTCCCGGTAATCCGTATTTGCAAGGTTGGTTTCACT; site = the 11-nt target. The method in brief:
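Values are log10(CPM+1) from a pooled E. coli screen of targets paired with IS621 bridge RNA target-binding loops. Recombination efficiency here means counts per million of recombinant-junction barcodes, averaged and control-corrected. Plates were chloramphenicol/ampicillin LB agar for the control and chloramphenicol/ampicillin/kanamycin with 0.1 mM IPTG, two replicates each.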
On to “CTCCATTCTTGGGTTCTAACCTGTTGCAT (site CTCGATTCTAT)”, for which the “recombinant barcode read abundance (log10)” value was found to be 0.123. Turning to “CTCCATTCTTGGGTTCTAACCTGTTGCAT (site CTCTATTCTAT)”, the “recombinant barcode read abundance (log10)” value stood at 0.34. With “CTCCCTACTTGGGTTCTAACCTGTTGCAG (site CTCCCAACTCG)”, the “recombinant barcode read abundance (log10)” value was found to be 0.072. “CTCCCTACTTGGGTTCTAACCTGTTGCAG (site CTCCCTACTCT)”: the “recombinant barcode read abundance (log10)” value came to 1.68. In the case of “CTCCGGCCTTGGGTTCTAACCTGTTGCTT (site CTCCGACCTAA)”, the “recombinant barcode read abundance (log10)” value stood at 0.809. Turning to “CTCCGGCCTTGGGTTCTAACCTGTTGCTT (site CTCCGCCCTAA)”, the “recombinant barcode read abundance (log10)” value amounted to 0.0895.

On to “CTCCGGCCTTGGGTTCTAACCTGTTGCTT (site CTCCGGCCTAA)”, for which the “recombinant barcode read abundance (log10)” value is 0.521. Turning to “CTCCGGCCTTGGGTTCTAACCTGTTGCTT (site CTCCGTCCTAA)”, the “recombinant barcode read abundance (log10)” value came out at 0.0711. On to “CTCCGTACTTGGGTTCTAACCTGTTGCCG (site CTCCGTACTCG)”, for which the “recombinant barcode read abundance (log10)” value came to 0.13. For “CTCCGTACTTGGGTTCTAACCTGTTGCCG (site CTTCGTACTTG)”, the “recombinant barcode read abundance (log10)” value was found to be 0.0671. Take “CTCCTACCTTGGGTTCTAACCTGTTGCCT (site CGCCTAGCTAG)”: the “recombinant barcode read abundance (log10)” value turned out to be 0.11. As for “CTCCTACCTTGGGTTCTAACCTGTTGCCT (site CTCCTACCTAG)”, the “recombinant barcode read abundance (log10)” value was determined as 0.957. As to “CTCCTCTCTTGGGTTCTAACCTGTTGCCT (site CTCCTCCCTAG)”, the “recombinant barcode read abundance (log10)” value was 0.862. As for “CTCCTCTCTTGGGTTCTAACCTGTTGCCT (site CTCCTCTCTAG)”, the “recombinant barcode read abundance (log10)” value was determined as 2.05. For “CTCCTGCCTTGGGTTCTAACCTGTTGCCT (site CTCCTGCCTAG)”, the “recombinant barcode read abundance (log10)” value stood at 0.977. Consider “CTCCTGCCTTGGGTTCTAACCTGTTGCCT (site TTCCTGACTAG)”, for which the “recombinant barcode read abundance (log10)” value turned out to be 0.0902.

As for “CTCGACACTTGGGTTCTAACCTGTTGCCT (site CTAGACACTAG)”, the “recombinant barcode read abundance (log10)” value worked out at 0.697. With “CTCGACACTTGGGTTCTAACCTGTTGCCT (site CTCGACACTAG)” the figure was 1.82. Turning to “CTCGACACTTGGGTTCTAACCTGTTGCCT (site CTGGACACTAG)”, the “recombinant barcode read abundance (log10)” value turned out to be 0.0603. In the case of “CTCGACACTTGGGTTCTAACCTGTTGCCT (site CTTGACACTAG)”, the “recombinant barcode read abundance (log10)” value was 0.215.

As to “CTCGCAGCTTGGGTTCTAACCTGTTGCGG (site CTCGCAGCTCC)”, the “recombinant barcode read abundance (log10)” value worked out at 0.313. As to “CTCGCAGCTTGGGTTCTAACCTGTTGCGG (site CTCGCGACTCC)”, the “recombinant barcode read abundance (log10)” value is 0.141. “CTCGCGACTTGGGTTCTAACCTGTTGCGG (site CTCGCAGCTCC)”: the “recombinant barcode read abundance (log10)” value came to 0.655. With “CTCGCGACTTGGGTTCTAACCTGTTGCGG (site CTCGCGACTCC)”, the “recombinant barcode read abundance (log10)” value was found to be 0.181. As to “CTCGCTCCTTGGGTTCTAACCTGTTGCTG (site AATAAGTCTAT)”, the “recombinant barcode read abundance (log10)” value stood at 0.102. As to “CTCGCTCCTTGGGTTCTAACCTGTTGCTG (site CTCGCTCCTCA)”, the “recombinant barcode read abundance (log10)” value came out at 0.563. Regarding “CTCGGAGCTTGGGTTCTAACCTGTTGCCT (site CTCGGAACTAG)”, the “recombinant barcode read abundance (log10)” value was determined as 0.499. Take “CTCGGAGCTTGGGTTCTAACCTGTTGCCT (site CTCGGACCTAG)”: the “recombinant barcode read abundance (log10)” value stood at 0.0847. With “CTCGGAGCTTGGGTTCTAACCTGTTGCCT (site CTCGGAGCTAG)” the figure was 1.04; with “CTCGGAGCTTGGGTTCTAACCTGTTGCCT (site CTCGGATCTAG)”, 0.311.

Take “CTCGGATCTTGGGTTCTAACCTGTTGCTT (site CTCGGATCTAA)”: the “recombinant barcode read abundance (log10)” value turned out to be 1.38.

Regarding “CTCGGATCTTGGGTTCTAACCTGTTGCTT (site CTCGGATCTCA)”, the “recombinant barcode read abundance (log10)” value is 0.0569. For “CTCGGATCTTGGGTTCTAACCTGTTGCTT (site CTCGGATCTGA)”, the “recombinant barcode read abundance (log10)” value is 0.0569.

As to “CTCGGATCTTGGGTTCTAACCTGTTGCTT (site CTCGGATCTTA)”, the “recombinant barcode read abundance (log10)” value came out at 0.371.

Turning to “CTCTAAACTTGGGTTCTAACCTGTTGCCG (site CTCATAACTCG)”, the “recombinant barcode read abundance (log10)” value came to 0.132.

For the sequence “CTCTAAACTTGGGTTCTAACCTGTTGCCG (site CTCTAAACTCG)”, the “recombinant barcode read abundance (log10)” value was found to be 0.311.

“CTCTACCCTTGGGTTCTAACCTGTTGCGT (site CTCTAACCTAC)”: the “recombinant barcode read abundance (log10)” value came out at 0.272.

As to “CTCTACCCTTGGGTTCTAACCTGTTGCGT (site CTCTACCCTAC)”, the “recombinant barcode read abundance (log10)” value was 0.589.

For “CTCTACCCTTGGGTTCTAACCTGTTGCGT (site CTCTAGCCTAC)”, the “recombinant barcode read abundance (log10)” value stood at 0.0363.

With “CTCTACCCTTGGGTTCTAACCTGTTGCGT (site CTCTATCCTAC)”, the “recombinant barcode read abundance (log10)” value was found to be 0.0916. For “CTCTAGACTTGGGTTCTAACCTGTTGCGT (site CTCTAGACTAC)”, the “recombinant barcode read abundance (log10)” value is 2.01. For the sequence “CTCTAGACTTGGGTTCTAACCTGTTGCGT (site CTTTAGACTAT)”, the “recombinant barcode read abundance (log10)” value was 0.211. As for “CTCTATTCTTGGGTTCTAACCTGTTGCAT (site CTCAATTCTAT)”, the “recombinant barcode read abundance (log10)” value was 0.262. Consider “CTCTATTCTTGGGTTCTAACCTGTTGCAT (site CTCCATTCTAT)”, for which the “recombinant barcode read abundance (log10)” value worked out at 0.16. In the case of “CTCTATTCTTGGGTTCTAACCTGTTGCAT (site CTCGATTCTAT)”, the “recombinant barcode read abundance (log10)” value was determined as 0.161. As to “CTCTATTCTTGGGTTCTAACCTGTTGCAT (site CTCTATTCTAT)”, the “recombinant barcode read abundance (log10)” value is 0.242.

As for “CTCTCATCTTGGGTTCTAACCTGTTGCTT (site CTCTCATCTAA)”, the “recombinant barcode read abundance (log10)” value came to 0.0308.

As to “CTCTCATCTTGGGTTCTAACCTGTTGCTT (site CTCTCATCTAG)”, the “recombinant barcode read abundance (log10)” value was 0.232.

With “CTCTCGCCTTGGGTTCTAACCTGTTGCCT (site CTATCGCCTAG)”, the “recombinant barcode read abundance (log10)” value came to 0. For the sequence “CTCTCGCCTTGGGTTCTAACCTGTTGCCT (site CTCTCGCCTAG)”, the “recombinant barcode read abundance (log10)” value was found to be 0.168.

“CTCTCGCCTTGGGTTCTAACCTGTTGCCT (site CTGTCGCCTAG)”: the “recombinant barcode read abundance (log10)” value came out at 0.0587.

Take “CTCTCGCCTTGGGTTCTAACCTGTTGCCT (site CTTTCGCCTAG)”: the “recombinant barcode read abundance (log10)” value came out at 0.0266. Consider “CTCTCGGCTTGGGTTCTAACCTGTTGCCT (site CTCTAGGCTAG)”, for which the “recombinant barcode read abundance (log10)” value turned out to be 0.494. Regarding “CTCTCGGCTTGGGTTCTAACCTGTTGCCT (site CTCTCGGCTAG)”, the “recombinant barcode read abundance (log10)” value stood at 0.865.

In the case of “CTCTCGGCTTGGGTTCTAACCTGTTGCCT (site CTCTGGGCTAG)”, the “recombinant barcode read abundance (log10)” value worked out at 0.138. For “CTCTCGGCTTGGGTTCTAACCTGTTGCCT (site CTCTTGGCTAG)”, the “recombinant barcode read abundance (log10)” value was determined as 0.0157. Regarding “CTCTGCTCTTGGGTTCTAACCTGTTGCTC (site CTCTGCTCTGA)”, the “recombinant barcode read abundance (log10)” value came out at 0.724.

As to “CTCTGCTCTTGGGTTCTAACCTGTTGCTC (site GCTGAGGCTTG)”, the “recombinant barcode read abundance (log10)” value worked out at 0. For “CTCTGTCCTTGGGTTCTAACCTGTTGCTA (site CTCTGTCCTTA)”, the “recombinant barcode read abundance (log10)” value was 0.346. Take “CTCTGTCCTTGGGTTCTAACCTGTTGCTA (site CTCTGTCCTTG)”: the “recombinant barcode read abundance (log10)” value came out at 0.0487. Regarding “CTCTTAACTTGGGTTCTAACCTGTTGCTA (site CTCTTAACTTA)”, the “recombinant barcode read abundance (log10)” value is 0.128.

Regarding “CTCTTAACTTGGGTTCTAACCTGTTGCTA (site CTCTTAGCTTT)”, the “recombinant barcode read abundance (log10)” value amounted to 0.134. With “CTCTTGACTTGGGTTCTAACCTGTTGCTT (site CTCTGGACTAA)” the figure was 0.0764; with “CTCTTGACTTGGGTTCTAACCTGTTGCTT (site CTCTTGACTAA)”, 0.871. As for “CTGAGCCCTTGGGTTCTAACCTGTTGCCG (site CTAAGCCCTCC)”, the “recombinant barcode read abundance (log10)” value came to 0.239. For the sequence “CTGAGCCCTTGGGTTCTAACCTGTTGCCG (site CTGAGCCCTCG)”, the “recombinant barcode read abundance (log10)” value is 1.08. As for “CTGAGGCCTTGGGTTCTAACCTGTTGCCT (site ATGAGGCCTAG)”, the “recombinant barcode read abundance (log10)” value was found to be 0.226. As for “CTGAGGCCTTGGGTTCTAACCTGTTGCCT (site CTGAGGCCTAG)”, the “recombinant barcode read abundance (log10)” value came to 0.497. Turning to “CTGAGGCCTTGGGTTCTAACCTGTTGCCT (site GTGAGGCCTAG)”, the “recombinant barcode read abundance (log10)” value is 0.11. For the sequence “CTGAGGCCTTGGGTTCTAACCTGTTGCCT (site TTGAGGCCTAG)”, the “recombinant barcode read abundance (log10)” value is 0.299. In the case of “CTGATAACTTGGGTTCTAACCTGTTGCCT (site CTGATAACTAG)”, the “recombinant barcode read abundance (log10)” value was found to be 1.02. Regarding “CTGATAACTTGGGTTCTAACCTGTTGCCT (site CTGATCACTAG)”, the “recombinant barcode read abundance (log10)” value is 0.279. As for “CTGATAACTTGGGTTCTAACCTGTTGCCT (site CTGATGACTAG)”, the “recombinant barcode read abundance (log10)” value is 0.0814. Consider “CTGATAACTTGGGTTCTAACCTGTTGCCT (site CTGATTACTAG)”, for which the “recombinant barcode read abundance (log10)” value turned out to be 0.136. Take “CTGCCCGCTTGGGTTCTAACCTGTTGCCT (site CTGCCCGCTAG)”: the “recombinant barcode read abundance (log10)” value came out at 0.667. The value for “CTGCCCGCTTGGGTTCTAACCTGTTGCCT (site GTGCTCGCTAG)” was 0.366; that for “CTGCCCTCTTGGGTTCTAACCTGTTGCCT (site CAGCCCTCTAG)” was 0.932.

The values are drawn from the supplement of paper PMC11208160.
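Further: IS621 recombinase and bridge RNA in Escherichia coli cells.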
